SMILES strings stand for the structures. Where only a bound is given, the exact number is not on record here.

The target of the test is T1, Human MTHFD2 (Homo sapiens, UniProt P13995).
T1 construct: residues 36-350 in Uniport ID P13995; His6 (N); made in house; host or cells: E. coli
T1 sequence (P13995 36-350): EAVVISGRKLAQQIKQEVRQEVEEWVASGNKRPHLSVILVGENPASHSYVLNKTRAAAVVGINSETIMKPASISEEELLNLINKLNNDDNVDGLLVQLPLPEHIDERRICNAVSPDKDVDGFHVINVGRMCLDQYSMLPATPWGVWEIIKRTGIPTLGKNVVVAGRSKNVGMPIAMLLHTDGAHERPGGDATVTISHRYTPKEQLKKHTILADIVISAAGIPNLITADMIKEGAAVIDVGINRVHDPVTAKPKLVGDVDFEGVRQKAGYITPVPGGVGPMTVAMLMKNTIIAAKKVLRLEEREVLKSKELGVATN
Nature of the test: MTHFD2 Activity Assay (dehydrogenase activity, diaphorase/resazurin coupled fluorescence). It is filed as biochemical. To be noted: inhibitory activity (IC50 and/or binding constant); 0.2 nM MTHFD2, 11 concentrations. A digest of the protocol:
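Steps: compound + 0.2 nM enzyme, 15 min, pH 8.0 Hepes buffer; add 70 μM CH2-THF, 1 mM NAD+, 100 μM resazurin, diaphorase; 30 min; quench with EDTA; read fluorescence. Data normalized to DMSO (100%) and no-enzyme (0%) wells.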
On the technique in general: Alamar Blue is a resazurin reagent that responds to reducing activity.
`Cn1c(Nc2ccncc2)nc2c1c(=O)n(Cc1cc3c(F)cccc3[nH]1)c(=O)n2C` [Example 310, 1-((4-fluoro-1H-indol-2-yl)methyl)-3,7-dimethyl-8-(pyridin-4-ylamino)-1H-purine-2,6(3H,7H)-dione] yielded a half-inhibitory concentration (IC50) of 0.01 to 1 µM.
With `Cn1c(Nc2ccncc2)nc2c1c(=O)n(Cc1cc3c(-c4ccccc4)cccc3[nH]1)c(=O)n2C` [Example 374, 3,7-dimethyl-1-((4-phenyl-1H-indol-2-yl)methyl)-8-(pyridin-4-ylamino)-1H-purine-2,6(3H,7H)-dione] the figure was more than 10 µM; with `Cn1c(Cn2c(=O)c3c(nc(-n4nccc4N)n3C)n(C)c2=O)cc2cc(Cl)ccc21` [Example 220, 8-(5-amino-1H-pyrazol-1-yl)-1-((5-chloro-1-methyl-1H-indol-2-yl)methyl)-3,7-dimethyl-1H-purine-2,6(3H,7H)-dione], 0.01 to 1 µM; with `Cn1c(N[C@H]2CCCOC2)nc2c1c(=O)n(Cc1ccc(Cl)c(Cl)c1)c(=O)n2C` [Example 46, 1-[(3,4-dichlorophenyl)methyl]-3,7-dimethyl-8-{[(3S)-oxan-3-yl]amino}-2,3,6,7-tetrahydro-1H-purine-2,6-dione], 0.01 to 1 µM.
Next, `Cn1c(Nc2cc(CCC(=O)O)ccn2)nc2c1c(=O)n(Cc1ccc(Cl)c(Cl)c1)c(=O)n2C` [Example 281, 3-(2-(1-(3,4-dichlorobenzyl)-3,7-dimethyl-2,6-dioxo-2,3,6,7-tetrahydro-1H-purin-8-ylamino)pyridin-4-yl)propanoic acid]: 1 to 5 µM; `Cc1ccc2[nH]c(Cn3c(=O)c4c(nc(N5CCC(O)CC5)n4C)n(C)c3=O)cc2c1` [Example 193, 8-(4-hydroxypiperidin-1-yl)-3,7-dimethyl-1-((5-methyl-1H-indol-2-yl)methyl)-1H-purine-2,6(3H,7H)-dione]: 0.01 to 1 µM; `Cn1c(Nc2ccc(C(=O)O)cc2)nc2c1c(=O)n(Cc1ccc(Cl)c(Cl)c1)c(=O)n2C` [Example 269, 4-[[1-[(3,4-dichlorophenyl)methyl]-3,7-dimethyl-2,6-dioxo-purin-8-yl]amino]benzoic acid]: 0.01 to 1 µM.
Next, `Cn1c(NCCCO)nc2c1c(=O)n(Cc1ccc(C(F)(F)F)cc1)c(=O)n2C` [Example 56, 8-[(3-hydroxypropyl)amino]-3,7-dimethyl-1-{[4-(trifluoromethyl)phenyl]methyl}-2,3,6,7-tetrahydro-1H-purine-2,6-dione]: 5 to 10 µM.
Turning to `Cn1c(N[C@H]2C[C@H](C(=O)O)C2)nc2c1c(=O)n(Cc1ccc(Cl)c(Cl)c1)c(=O)n2C` [Example 266], the IC50 lay within 0.01 to 1 µM.
With `Cn1c(NC2CCCC(O)C2)nc2c1c(=O)n(Cc1ccc(Cl)c(Cl)c1)c(=O)n2C` (centres unmarked) [Example 33, 1-[(3,4-dichlorophenyl)methyl]-8-[(3-hydroxycyclohexyl)amino]-3,7-dimethyl-2,3,6,7-tetrahydro-1H-purine-2,6-dione] the figure was 0.01 to 1 µM; with `Cn1c(Nc2ccccc2)nc2c1c(=O)n(Cc1ccc(Cl)c(Cl)c1)c(=O)n2C` [Example 127, 1-(3,4-dichlorobenzyl)-3,7-dimethyl-8-(phenylamino)-1H-purine-2,6(3H,7H)-dione], 1 to 5 µM; with `Cn1c(N[C@H]2CCC[C@H]2O)nc2c1c(=O)n(Cc1ccc(Cl)c(Cl)c1)c(=O)n2C` [Example 94, 1-[(3,4-dichlorophenyl)methyl]-8-{[(1S,2R)-2-hydroxycyclopentyl]amino}-3,7-dimethyl-2,3,6,7-tetrahydro-1H-purine-2,6-dione], 0.01 to 1 µM.
Next, `Cn1c(N[C@@H]2CCC[C@H](C(=O)O)C2)nc2c1c(=O)n(Cc1ccc(Cl)c(Cl)c1)c(=O)n2C` (single isomer, unassigned) [Example 184, (1S,3R)-3-(1-(3,4-dichlorobenzyl)-3,7-dimethyl-2,6-dioxo-2,3,6,7-tetrahydro-1H-purin-8-ylamino)cyclohexanecarboxylic acid or (1R,3S)-3-(1-(3,4-dichlorobenzyl)-3,7-dimethyl-2,6-dioxo-2,3,6,7-tetrahydro-1H-purin-8-ylamino)cyclohexanecarboxylic acid]: 0.01 to 1 µM.
Take `Cn1c(NC(C(=O)O)C2CCCCC2)nc2c1c(=O)n(Cc1ccc(C(F)(F)F)cc1)c(=O)n2C` (centres unmarked) [Example 151, 2-cyclohexyl-2-((3,7-dimethyl-2,6-dioxo-1-(4-(trifluoromethyl)benzyl)-2,3,6,7-tetrahydro-1H-purin-8-yl)amino)acetic acid]: the half-maximal inhibitory concentration (IC50) was more than 10 µM.
With `Cn1c(N[C@H]2CCCNC2=O)nc2c1c(=O)n(Cc1cc3ccccc3[nH]1)c(=O)n2C` [Example 213, (S)-1-((1H-indol-2-yl)methyl)-3,7-dimethyl-8-(2-oxopiperidin-3-ylamino)-1H-purine-2,6(3H,7H)-dione] the figure was 0.01 to 1 µM.
With `Cn1c(N[C@@H]2CCCNC2)nc2c1c(=O)n(Cc1ccc(Cl)c(Cl)c1)c(=O)n2C` [Example 69, 1-[(3,4-dichlorophenyl)methyl]-3,7-dimethyl-8-{[(3R)-piperidin-3-yl]amino}-2,3,6,7-tetrahydro-1H-purine-2,6-dione] the figure was 0.01 to 1 µM; with `Cn1c(Nc2ccnc(CCC(=O)N3CCC3)n2)nc2c1c(=O)n(Cc1cc3c(Cl)cccc3[nH]1)c(=O)n2C` [Example 413, 8-(2-(3-(azetidin-1-yl)-3-oxopropyl)pyrimidin-4-ylamino)-1-((4-chloro-1H-indol-2-yl)methyl)-3,7-dimethyl-1H-purine-2,6(3H,7H)-dione], 0.01 to 1 µM.
Next, `Cn1c(N[C@H]2CC[C@H](C(=O)O)CC2)nc2c1c(=O)n(Cc1ccc(Cl)c(Cl)c1)c(=O)n2C` [Example 272, (±)-trans-4-[[1-[(3,4-dichlorophenyl)methyl]-3,7-dimethyl-2,6-dioxo-purin-8-yl]amino]cyclohexanecarboxylic acid]: 0.01 to 1 µM.
For the molecule `Cn1c(NC2CCCCC2)nc2c1c(=O)n(Cc1ccc(Cl)c(Cl)c1)c(=O)n2C` [Example 59, 8-(cyclohexylamino)-1-[(3,4-dichlorophenyl)methyl]-3,7-dimethyl-2,3,6,7-tetrahydro-1H-purine-2,6-dione], the IC50 was in the range of 1 to 5 µM.
Next, `COc1cc(Cn2c(=O)c3c(nc(NCCCO)n3C)n(C)c2=O)ccc1Cl` [Example 96, 1-[(4-chloro-3-methoxyphenyl)methyl]-8-[(3-hydroxypropyl)amino]-3,7-dimethyl-2,3,6,7-tetrahydro-1H-purine-2,6-dione]: 1 to 5 µM; `Cn1c(Nc2ncn[nH]2)nc2c1c(=O)n(Cc1cc3cc(Cl)ccc3[nH]1)c(=O)n2C` [Example 207, 8-(1H-1,2,4-triazol-5-ylamino)-1-((5-chloro-1H-indol-2-yl)methyl)-3,7-dimethyl-1H-purine-2,6(3H,7H)-dione]: 1 to 5 µM; `Cn1c(Nc2ccnc([C@H]3C[C@H]3C(=O)O)c2)nc2c1c(=O)n(Cc1cc3c(Cl)cccc3[nH]1)c(=O)n2C` (racemic) [Example 368, (±)-cis-2-(4-((1-((4-chloro-1H-indol-2-yl)methyl)-3,7-dimethyl-2,6-dioxo-2,3,6,7-tetrahydro-1H-purin-8-yl)amino)pyridin-2-yl)cyclopropanecarboxylic acid]: 0.01 to 1 µM.
`Cn1c(C(N)C2CC2)nc2c1c(=O)n(Cc1cc3c(Cl)cccc3[nH]1)c(=O)n2C` (centres unmarked) [Example 444, 8-[amino(cyclopropyl)methyl]-1-[(4-chloro-1H-indol-2-yl)methyl]-3,7-dimethyl-purine-2,6-dione] came in with an IC50 of 0.01 to 1 µM.
`Cn1c(NCCCO)nc2c1c(=O)n(Cc1ccc(F)c(F)c1)c(=O)n2C` [Example 29, 1-[(3,4-difluorophenyl)methyl]-8-[(3-hydroxypropyl)amino]-3,7-dimethyl-2,3,6,7-tetrahydro-1H-purine-2,6-dione] registered an IC50 of more than 10 µM.
With `Cn1c(Nc2ccc(CC(N)=O)cc2)nc2c1c(=O)n(Cc1cc3c(Cl)cccc3[nH]1)c(=O)n2C` [Example 431, 2-[4-[[1-[(4-chloro-1H-indol-2-yl)methyl]-3,7-dimethyl-2,6-dioxo-purin-8-yl]amino]phenyl]acetamide] the figure was 0.01 to 1 µM; with `Cn1c(NCCCO)nc2c1c(=O)n(Cc1ccc(C(F)(F)F)c(Cl)c1)c(=O)n2C` [Example 73, 1-{[3-chloro-4-(trifluoromethyl)phenyl]methyl}-8-[(3-hydroxypropyl)amino]-3,7-dimethyl-2,3,6,7-tetrahydro-1H-purine-2,6-dione], 1 to 5 µM.
Next, `Cn1c(NCCCO)nc2c1c(=O)n(Cc1ccc(Cl)c(C(F)(F)F)c1)c(=O)n2C` [Example 67, 1-{[4-chloro-3-(trifluoromethyl)phenyl]methyl}-8-[(3-hydroxypropyl)amino]-3,7-dimethyl-2,3,6,7-tetrahydro-1H-purine-2,6-dione]: 0.01 to 1 µM; `C[C@H](O)CNc1nc2c(c(=O)n(Cc3ccc(F)c(F)c3)c(=O)n2C)n1C` [Example 30, 1-[(3,4-difluorophenyl)methyl]-8-{[(2S)-2-hydroxypropyl]amino}-3,7-dimethyl-2,3,6,7-tetrahydro-1H-purine-2,6-dione]: more than 10 µM.
Next, `COC(=O)c1nc2c(c(=O)n(Cc3ccc(Cl)c(Cl)c3)c(=O)n2C)n1C` [Example 161, Methyl 1-(3,4-dichlorobenzyl)-3,7-dimethyl-2,6-dioxo-2,3,6,7-tetrahydro-1H-purine-8-carboxylate]: 1 to 5 µM.

One may read the IC50 as the concentration at which inhibition is half-maximal.

Values taken from patent publication US12187728B2 (Raze Therapeutics, Inc., priority 2015, dated 2025).
